According to patent US7297353B2, “Use of anemonin for treating aseptic inflammations” (priority 2000, dated 2007):

Assays:
[1] = test system: IL-12(p40); test: Cytokine production from splenocytes, Sac stimulation, IL-12(p40) (ELISA); type: cell-based, murine; conditions: 24 h
Procedure: For splenocyte cytokine production assay, 5×10^6 cells per well were inoculated into a 24-well tissue culture plate with ConA (5 mg/L) or Sac (1:10000) stimulation. Different concentrations of Anemonin were added in a final volume of 2 ml. Cells were incubated at 37° C., 5% CO2 for 24 h and supernatants were harvested, IFN-γ, IL-10, IL12 (p40) and IL-2 in supernatants were measured by the sandwich enzyme-linked immunosorbent assay (ELISA) as specified by the manufacturer (BD Bioscience pharmingen, US). Concentrations of the cytokine productions were calculated based on standard curves obtained from serial dilutions of murine cytokines (r IFN-γ, rIL-10, rIL12, rIL-2). As shown in Tables C-3 and C-4, high-dose Anemonin (1-100 μg/ml) inhibited all kinds of cytokine release induced by ConA or Sac.

[2] = test system: murine spleens cells stimulated with ConA; test: T-cell proliferation, spleen cells stimulated with ConA ([3H]-thymidine uptake); type: cell-based, ICR mice; conditions: for [^3H]-TDRincorparation(CPM × 10^−3): ConA 5 μg/ml, 48 hrs
Procedure: Fresh spleen cells were obtained from ICR mice (male, 7-9 weeks old), 5×10^5 of spleen cells were cultured in 96-well flat plates with […] of RPMI 1640 media containing 10% FBS, 100 U/ml penicillin and 100 μg/ml streptomyin in a humidified, 37° C., 5% CO2 incubator for 48 hrs. The cultures were either unstimulated, or were stimulated with 5 μg/ml of ConA or 10 μg/ml of LPS to induce T cells or B cells proliferative responses respectively. The compounds were added in cultures with indicated concentrations to test their bioactivities. Profileration was assessed in terms of uptake of [^3H]-thymidine during 6-12 hours pulsing with 20 kBq [^3H]-thymidine/well, then the cells were harvested by a Basic 96 harvester, and counted in a 1540 MicroBeta Trilux (PerkinElmer Life Sciences).

[3] = test system: injured skin; test: Effect of anemonin on the injured skin in mice (visual irritation score); type: in vivo, ICR mice; design: Irritation Score: scale not given here
Procedure: ICR mice were utilized for the studies. The dorsal hair of mice was cut and injured 24 hour before experiment. 25% ethanol (0.5 ml) and the liniment solution of anemonin (0.05, 0.5, 5 mg/ml, 0.5 ml) were coated 4 h a day for 7 days on the area of hairless which was 2×2 cm^2 per mice. The skin irritation was evaluated by visual scoring (Table C-3 and C-4) everyday. The mice were continuously observed for 7 days after stopping applying. […] The injured skin of application 0.5 mg/ml anemonin also healed up within 7 days.

[4] = 0.05 mg/ml on injured skin, Day 1, Treatment
[5] = 0.05 mg/ml on injured skin, Day 2, Treatment
[6] = 0.05 mg/ml on injured skin, Day 3, Treatment
[7] = 0.05 mg/ml on injured skin, Day 4, Treatment
[8] = 0.05 mg/ml on injured skin, Day 5, Treatment
[9] = 0.05 mg/ml on injured skin, Day 6, Treatment
[10] = 0.05 mg/ml on injured skin, Day 7, Treatment
[11] = 0.05 mg/ml on injured skin, Day 8, Observation
[12] = 0.05 mg/ml on injured skin, Day 9, Observation
[13] = 0.05 mg/ml on injured skin, Day 10, Observation
[14] = 0.05 mg/ml on injured skin, Day 11, Observation
[15] = 0.05 mg/ml on injured skin, Day 12, Observation
[16] = 0.05 mg/ml on injured skin, Day 13, Observation
[17] = 0.05 mg/ml on injured skin, Day 14, Observation
[18] = 0.5 mg/ml on injured skin, Day 1, Treatment
[19] = 0.5 mg/ml on injured skin, Day 2, Treatment
[20] = 0.5 mg/ml on injured skin, Day 3, Treatment
[21] = 0.5 mg/ml on injured skin, Day 4, Treatment
[22] = 0.5 mg/ml on injured skin, Day 5, Treatment
[23] = 0.5 mg/ml on injured skin, Day 6, Treatment
[24] = 0.5 mg/ml on injured skin, Day 7, Treatment
[25] = 0.5 mg/ml on injured skin, Day 8, Observation
[26] = 0.5 mg/ml on injured skin, Day 9, Observation
[27] = 0.5 mg/ml on injured skin, Day 10, Observation
[28] = 0.5 mg/ml on injured skin, Day 11, Observation
[29] = 0.5 mg/ml on injured skin, Day 12, Observation
[30] = 0.5 mg/ml on injured skin, Day 13, Observation
[31] = 0.5 mg/ml on injured skin, Day 14, Observation
[32] = 5 mg/ml on injured skin, Day 2, Treatment
[33] = 5 mg/ml on injured skin, Day 3, Treatment
[34] = 5 mg/ml on injured skin, Day 4, Treatment
[35] = 5 mg/ml on injured skin, Day 5, Treatment
[36] = 5 mg/ml on injured skin, Day 6, Treatment
[37] = 5 mg/ml on injured skin, Day 7, Treatment
[38] = 5 mg/ml on injured skin, Day 8, Observation
[39] = 5 mg/ml on injured skin, Day 9, Observation
[40] = 5 mg/ml on injured skin, Day 10, Observation
[41] = 5 mg/ml on injured skin, Day 11, Observation
[42] = 5 mg/ml on injured skin, Day 12, Observation
[43] = 5 mg/ml on injured skin, Day 13, Observation
[44] = 5 mg/ml on injured skin, Day 14, Observation

O=C1C=CC2(CCC23C=CC(=O)O3)O1 (stereo not shown) [Anemonin, anemonin]
significantly inhibited: T-cell proliferation ([2]; 1-100 μg/ml)
Mild (Mide irritation <2.09): Irritation Grade [3, 18] | Irritation Grade [3, 43] | Irritation Grade [3, 44]
2.5: Irritation Score [3, 42]
21.7 ± 0.53 CPM × 10^−3: [^3H]-TDRincorparation(CPM × 10^−3) ([2]; 1 μg/ml)
30.1 ± 1.31 CPM × 10^−3: [^3H]-TDRincorparation(CPM × 10^−3) ([2]; 0.001 μg/ml)
501 ± 6 pg/mL: IL-12(p40) ([1]; 0.001 μg/ml)
3.1: Irritation Score ([3]; 5 mg/ml, 0.5 ml, 4 h a day for 7 days on injured skin, Day 1, Treatment)
86 ± 6 pg/mL: IL-12(p40) ([1]; 10 μg/ml)
72 ± 4 pg/mL: IL-12(p40) ([1]; 100 μg/ml)
444 ± 3 pg/mL: IL-12(p40) ([1]; 0.1 μg/ml)
mild to moderate erythema: irritation on injured skin ([3]; application of 5 mg/ml)
0: Irritation Score [3, 4] | Irritation Score [3, 5] | Irritation Score [3, 6] | Irritation Score [3, 7] | Irritation Score [3, 8] | Irritation Score [3, 9] | Irritation Score [3, 10] | Irritation Score [3, 11] | Irritation Score [3, 12] | Irritation Score [3, 13] | Irritation Score [3, 14] | Irritation Score [3, 15] | Irritation Score [3, 16] | Irritation Score [3, 17] | Irritation Score [3, 23] | Irritation Score [3, 24] | Irritation Score [3, 25] | Irritation Score [3, 26] | Irritation Score [3, 27] | Irritation Score [3, 28] | Irritation Score [3, 29] | Irritation Score [3, 30] | Irritation Score [3, 31]
slight erythema: irritation on injured skin ([3]; application of 0.5 mg/ml, after 24 h application, then began to alleviate)
0.03 ± 0.01 CPM × 10^−3: [^3H]-TDRincorparation(CPM × 10^−3) ([2]; 10 μg/ml)
No (No irritation <0.5): Irritation Grade [3, 4] | Irritation Grade [3, 5] | Irritation Grade [3, 6] | Irritation Grade [3, 7] | Irritation Grade [3, 8] | Irritation Grade [3, 9] | Irritation Grade [3, 10] | Irritation Grade [3, 11] | Irritation Grade [3, 12] | Irritation Grade [3, 13] | Irritation Grade [3, 14] | Irritation Grade [3, 15] | Irritation Grade [3, 16] | Irritation Grade [3, 17] | Irritation Grade [3, 19] | Irritation Grade [3, 20] | Irritation Grade [3, 21] | Irritation Grade [3, 22] | Irritation Grade [3, 23] | Irritation Grade [3, 24] | Irritation Grade [3, 25] | Irritation Grade [3, 26] | Irritation Grade [3, 27] | Irritation Grade [3, 28] | Irritation Grade [3, 29] | Irritation Grade [3, 30] | Irritation Grade [3, 31]
0.25: Irritation Score [3, 19] | Irritation Score [3, 20] | Irritation Score [3, 21]
446 ± 0 pg/mL: IL-12(p40) ([1]; 0.01 μg/ml)
293 ± 0 pg/mL: IL-12(p40) ([1]; 1 μg/ml)
3.4: Irritation Score [3, 32]
did not cause any irritation: irritation on injured skin ([3]; application of 0.05 mg/ml)
3.5: Irritation Score [3, 40]
4: Irritation Score [3, 36] | Irritation Score [3, 37] | Irritation Score [3, 38] | Irritation Score [3, 39]
0.02 ± 0.01 CPM × 10^−3: [^3H]-TDRincorparation(CPM × 10^−3) ([2]; 100 μg/ml)
30.9 ± 0.78 CPM × 10^−3: [^3H]-TDRincorparation(CPM × 10^−3) ([2]; 0.1 μg/ml)
Moderate (Moderate irritation <6.0): Irritation Grade ([3]; 5 mg/ml on injured skin, Day 1, Treatment) | Irritation Grade [3, 32] | Irritation Grade [3, 33] | Irritation Grade [3, 34] | Irritation Grade [3, 35] | Irritation Grade [3, 36] | Irritation Grade [3, 37] | Irritation Grade [3, 38] | Irritation Grade [3, 39] | Irritation Grade [3, 40] | Irritation Grade [3, 41] | Irritation Grade [3, 42]
33.2 ± 2.56 CPM × 10^−3: [^3H]-TDRincorparation(CPM × 10^−3) ([2]; 0.01 μg/ml)
1: Irritation Score [3, 18]
3.3: Irritation Score [3, 33] | Irritation Score [3, 34] | Irritation Score [3, 35]
0.125: Irritation Score [3, 22]
3: Irritation Score [3, 41]
2: Irritation Score [3, 43] | Irritation Score [3, 44]
